Consider one molecule from patent US11306054B2, “Propanediol monoacetate mononitrate” (DSM IP ASSETS B.V., priority 2017, dated 2022).

For the assay, the system named is S. epidermidis, C. xerosis, M. furfur, P. Acnes. The experiment in a line: Antimicrobial efficacy, challenge test, overall conclusion on the strains of table 1. The note with it: conclusion from table 1; almost comparable to Phenonip. The assay is classed as cell-based. How it is done:
The antimicrobial efficacy of propanediol monoacetate mononitrate (PDMAMN) is assessed in analogy to the regulatory challenge test method (NF EN ISO11930). The following test solutions were tested • 1. Inv 1: 400 mg PDMAMN in 1 ml PEG 400 were diluted with 40 mL physiological serum (0.85% NaCl) containing 7% Ethanol (˜1% of PDMAMN) • 2. Inv 2: 200 mg PDMAMN in 1 ml PEG 400 were diluted in 40 mL physiological serum (0.85% NaCl) containing 7% Ethanol (˜0.5% of PDMAMN) • 3. Inv 3: 40 mg 3-PDMAMN in 1 ml PEG 400 were diluted in 40 mL physiological serum (0.85% NaCl) containing 7% Ethanol (˜0.1% of PDMAMN) • 4. Ref 1: Physiological serum (0.85% NaCl) • 5. Ref 2: 1 mL PEG 400+40 mL physiological serum (0.85% NaCl) containing 7% Ethanol • 6. Control: 0.5% Phenonip in physiological serum (0.85% NaCl)
All test solutions were deposed in 96-deep well plates (1.6 ml/well). The wells were contaminated with the respective bacterial or the fungal strains as outlined in table 1*10^5 to 1*10^6 cfu/ml for the bacteria and 1*10^4 to 1*10^5 cfu/ml for the fungi to obtain the initial contamination as outlined in table 1, Zero. After the contamination, each well was thoroughly mixed to ensure a homogeneous distribution of the microorganism. Then each plate was incubated at 22° C. for 24 h. The counting of the (remaining) population was carried out 24 h after contamination.

With `CC(=O)OCCCO[N+](=O)[O-]` [propanediol monoacetate mononitrate, 1,3-propanediol monoacetate mononitrate], the antimicrobial activity result was “excellent antimicrobial activity”.
